Measured values reported in patent US7132443B2, “Fluoropyrrolidines as dipeptidyl peptidase inhibitors” (SmithKlineBeecham Corporation, priority 2001, dated 2006).
Where a name gives a salt, the structure may show the parent alone. Read-outs that look alike come from different tables or passages of the source. Blank lines part the entries; values can stand above or below the molecule they belong to.

Key:
[1] = Stability studies in Phosphate Buffered Saline by HPLC (cyclization/degradation half-life); details: PBS; for half-life: Phosphate Buffered Saline
From the text: (§1) An initial time point HPLC chromatogram is obtained followed by successive HPLC chromatograms at time points of 24, 48, 72, etc hours.
(§2) The area under the drug substance peak is compared to the initial area for each chromatogram and plotted as percent remaining from initial time (t0).

DPP-IV activity in serum [2] = molecular target: T1, DPP-IV activity in serum (Rattus norvegicus, UniProt P14740); experiment: DPP-IV activity in serum of rats 6 hrs after oral dosing; assay type: in vivo; details: for inhibition at 1 mg/kg: rat, read-out: Percent DPP-IV inhibition At 6 hrs In Rats; for duration of action: rats, 6 hrs after 1 mg/kg oral
T1 construct: from tissue; host or cells: serum/plasma of male CD rats dosed orally
T1 sequence (P14740 37-767 limits assumed): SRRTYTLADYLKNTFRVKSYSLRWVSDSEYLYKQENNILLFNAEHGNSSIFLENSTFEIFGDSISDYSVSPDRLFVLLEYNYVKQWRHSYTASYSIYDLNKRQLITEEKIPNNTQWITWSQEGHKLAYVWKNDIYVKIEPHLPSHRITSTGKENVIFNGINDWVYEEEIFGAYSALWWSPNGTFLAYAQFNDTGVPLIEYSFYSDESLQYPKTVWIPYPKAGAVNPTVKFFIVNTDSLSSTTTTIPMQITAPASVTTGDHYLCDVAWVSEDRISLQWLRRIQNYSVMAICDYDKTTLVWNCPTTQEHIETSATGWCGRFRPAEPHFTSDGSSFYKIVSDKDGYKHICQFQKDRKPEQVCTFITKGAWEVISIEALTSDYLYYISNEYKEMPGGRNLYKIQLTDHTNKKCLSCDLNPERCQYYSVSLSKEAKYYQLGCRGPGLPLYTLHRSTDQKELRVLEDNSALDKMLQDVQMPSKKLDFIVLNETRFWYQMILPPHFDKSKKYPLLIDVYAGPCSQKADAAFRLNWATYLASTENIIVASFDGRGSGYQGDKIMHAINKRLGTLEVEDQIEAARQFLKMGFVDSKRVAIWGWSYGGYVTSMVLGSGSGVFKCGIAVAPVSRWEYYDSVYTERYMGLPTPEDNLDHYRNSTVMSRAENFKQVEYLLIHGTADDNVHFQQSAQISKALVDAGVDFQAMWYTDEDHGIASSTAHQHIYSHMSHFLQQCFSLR
Procedure: Age and weight matched male CD rats were housed individually at 72° F. and 50% relative humidity with a 12 h light/dark cycle. Animals were dosed by oral gavage with vehicle (10 mM acetic acid) or 1 mg/kg test compound in vehicle. After 6 hrs administration of compound, the rats were anesthetized with isofluorane for cardiac blood collection. DPP-IV activity in serum was measured using the fluorogenic substrate Gly-Pro-AMC (50 mM) according to the manufacturers specification (Enzyme System Products, Livermore Calif.). The substrate was mixed with 50 mM Tris, pH 7.8, in plasma (20% final v/v) and the samples were incubated for 5–20 min at 30° C. DPP-IV activity was determined by measuring fluorescence using a cytofluor spectrofluoremeter with the filters set at 360 nm excitation and 460 nm emission. Averages and standard deviations from each group (n=3) were calculated using students t-test and compared to vehicle treated rats to determine percent inhibition as shown in Table 1.

human DPP-IV = molecular target: T2, human DPP-IV (Homo sapiens, UniProt P27487); experiment: DPP-IV assay (H-Ala-Pro-pNA hydrolysis, absorbance); assay type: biochemical
T2 construct: The material was isolated from human prostasomes using the method of DeMeester et al; purchased Athens Research and Technology, Inc; host or cells: human prostasomes (natural source)
T2 sequence (P27487 whole entry): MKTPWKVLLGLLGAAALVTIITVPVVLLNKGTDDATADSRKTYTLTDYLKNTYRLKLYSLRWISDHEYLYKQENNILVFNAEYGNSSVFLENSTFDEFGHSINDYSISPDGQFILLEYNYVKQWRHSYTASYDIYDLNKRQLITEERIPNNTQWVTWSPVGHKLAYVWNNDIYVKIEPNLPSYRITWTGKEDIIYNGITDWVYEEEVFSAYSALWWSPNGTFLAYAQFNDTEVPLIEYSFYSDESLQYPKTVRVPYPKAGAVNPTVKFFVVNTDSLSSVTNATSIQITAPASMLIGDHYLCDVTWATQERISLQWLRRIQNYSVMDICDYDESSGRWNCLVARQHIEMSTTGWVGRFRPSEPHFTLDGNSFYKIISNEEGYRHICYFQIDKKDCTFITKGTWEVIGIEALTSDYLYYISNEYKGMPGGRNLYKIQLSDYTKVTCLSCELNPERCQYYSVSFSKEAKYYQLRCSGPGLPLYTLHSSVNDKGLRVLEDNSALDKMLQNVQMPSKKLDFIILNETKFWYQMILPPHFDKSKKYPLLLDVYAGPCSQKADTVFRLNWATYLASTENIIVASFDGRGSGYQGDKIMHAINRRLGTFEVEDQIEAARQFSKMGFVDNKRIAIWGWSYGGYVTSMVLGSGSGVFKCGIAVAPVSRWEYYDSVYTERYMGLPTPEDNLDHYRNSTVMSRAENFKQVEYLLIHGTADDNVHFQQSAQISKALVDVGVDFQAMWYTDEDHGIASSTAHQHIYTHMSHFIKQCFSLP
Procedure: A 500 mM stock solution was prepared with dimethylsulfoxide and stored at −20° C. Gly-Pro-AMC was purchased from Enzyme System Products (product no. AMC-39) and stored at −20° C. as a 10 mM stock solution in dimethylsulfoxide. Test compounds were dissolved to 10 mM in dimethylsulfoxide and this was used as a stock solution for DPP-IV titration assays. Athens Research and Technology, Inc prepared the purified human DPP-IV. The material was isolated from human prostasomes using the method of DeMeester et al., J. Immunol.
The average enzymatic activity from wells containing dimethylsulfoxide but lacking test compound was used as a control value for calculating percent inhibition. DPP-IV (20 ng/mL) was mixed in microtiter plates with test compounds, substrate and assay buffer to yield 100 μM H-Ala-Pro-pNA•HCl in 25 mM Tris, pH 7.5, 10 mM KCl, 140 mM NaCl. The intact peptide contains a p-nitrophenylanilide which, when hydrolyzed by DPP-IV, releases the absorbant p-nitrophenylaniline. […] The enzymatic activity was determined by estimating the best linear fit to the data. Values for enzymatic activity were taken directly from the linear fit determined by the software on the plate reader.
Data Analysis: The enzymatic activity was determined by estimating the best linear fit to the data. Data reduction was performed using the Microsoft Excel RoboSage.
Determination of Ki values: Ki values were calculated from IC50 values using equation 3 assuming a competitive model.

dogs = experiment: Dose escalation studies in dogs, limiting gastrointestinal toxicity; assay type: in vivo
Procedure: The dog is a common non-rodent species routinely used to satisfy regulatory requirements. The beagle was chosen to examine the safety of the compounds of the present invention because of the knowledge of this strain's general pathology and response to a wide variety of drugs. Dogs (Marshall Farms Inc., North Rose, N.Y., USA) from 9 to 12 months (5 to 12 kg) were dosed by oral gavage at 10 mL/kg/day with vehicle (10 mM acetic acid, pH 3.3) or test compound in vehicle. Each dose was followed by a flush of approximately 10 mL of water, once daily with 24–48 hours between each subsequent dose. If limiting gastrointestinal toxicity was not observed, the dose was increased 3-fold no sooner than approximately 24 hours after the preceding dose. Limiting GI toxicity includes diarrhea, loose or mucoid feces, blood in stool, and/or sloughing of the gut epithelium. Clinical observations were made at least three times daily during treatment (once prior to dosing, approximately one hour post dose, and once in conjunction with pm viability). DPP-IV activity in serum was measured using the fluorogenic substrate Gly-Pro-AMC (50 mM) according to the manufacturers specification (Enzyme System Products, Livermore Calif.). […] DPP-IV activity was determined by measuring fluorescence using a cytofluor spectrofluoremeter with the filters set at 360 nm excitation and 460 nm emission.

DPP-IV activity in serum [3] = molecular target: T3, DPP-IV activity in serum (Canis lupus familiaris, UniProt A0A8I3Q2I8); experiment: DPP-IV activity in serum of dogs after oral dosing; assay type: in vivo; details: dog, read-out: inhibited DPP4 12 hours after oral dosing
T3 construct: The substrate was mixed with 50 mM Tris, pH 7.8, in serum (20% final v/v); from tissue; host or cells: serum of beagle dogs dosed orally
T3 sequence (A0A8I3Q2I8 1-765): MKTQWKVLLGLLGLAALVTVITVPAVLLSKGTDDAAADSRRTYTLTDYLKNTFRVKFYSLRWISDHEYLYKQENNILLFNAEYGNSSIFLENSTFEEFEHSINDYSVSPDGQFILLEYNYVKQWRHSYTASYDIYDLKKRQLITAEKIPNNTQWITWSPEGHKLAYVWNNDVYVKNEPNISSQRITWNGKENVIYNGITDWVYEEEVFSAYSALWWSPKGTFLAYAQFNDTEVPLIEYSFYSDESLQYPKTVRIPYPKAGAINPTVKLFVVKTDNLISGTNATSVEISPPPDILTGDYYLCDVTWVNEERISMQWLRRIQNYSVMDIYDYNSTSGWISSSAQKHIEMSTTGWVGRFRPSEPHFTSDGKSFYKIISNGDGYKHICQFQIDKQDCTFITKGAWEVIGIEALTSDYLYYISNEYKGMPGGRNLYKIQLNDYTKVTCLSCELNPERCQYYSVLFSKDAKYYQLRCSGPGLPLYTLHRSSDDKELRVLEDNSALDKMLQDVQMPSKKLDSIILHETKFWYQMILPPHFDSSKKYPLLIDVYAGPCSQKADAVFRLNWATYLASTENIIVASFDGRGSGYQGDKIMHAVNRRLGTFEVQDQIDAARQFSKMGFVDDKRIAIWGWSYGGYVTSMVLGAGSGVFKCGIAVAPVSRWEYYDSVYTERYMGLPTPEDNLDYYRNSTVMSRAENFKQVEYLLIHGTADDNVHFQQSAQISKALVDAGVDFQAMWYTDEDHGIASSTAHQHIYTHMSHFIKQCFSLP

physchem = details: buffer, t1/2 at 37° C.
From the text: as §1, §2

[4] = Table I, read-out: IC50 (nM) Human DPP-IV
[5] = human DPP-IV, text b860, read-out: IC50 values

half-life ([1]; t1/2 at 23° C., ambient room temperature 23° C.): 47 h | half-life ([1]; t1/2 at 37° C. (calc.), calculated for 37° C. from value measured at 23° C.): 23 h
SMILES: CC[C@H](C)[C@H](N)C(=O)N1C[C@@H](F)C[C@H]1C#N [Comparison Example 3]

SMILES: CC(C)[C@H](N)C(=O)N1C[C@@H](F)C[C@H]1C#N [Comparison Example 1]
inhibition at 1 mg/kg (DPP-IV activity in serum [2]; po): 32 ± 3% | duration of action (DPP-IV activity in serum [2]): poor level of duration | IC50 (human DPP-IV; [4]): 1.3 nM | IC50 (human DPP-IV; [5]): < 5.6 nM

SMILES: CC(C)(C)[C@H](N)C(=O)N1C[C@@H](F)C[C@H]1C#N [Comparison Example 5]
gastrointestinal toxicity, dose escalation in dogs (dogs; 0.3 mg/kg oral gavage): loose/mucoid feces with traces of blood | inhibition at 0.2 mg/kg (DPP-IV activity in serum [3]; po): 2% | inhibition at 1 mg/kg (DPP-IV activity in serum [2]; po): 71 ± 13% | IC50 (human DPP-IV; [4]): 3 nM

SMILES: N#C[C@@H]1C[C@H](F)CN1C(=O)[C@@H](N)C(c1ccc(F)cc1)c1ccc(F)cc1 [Example 2, (2S,4S)-1-[(2S)-2-Amino-3,3-bis(4-fluorophenyl)propanoyl]-4-fluoropyrrolidine-2-carbonitrile hydrochloride]
half-life (physchem): 266 h | gastrointestinal toxicity, dose escalation in dogs (dogs; dog, in vivo): no adverse affects on gastrointestinal toxicity | inhibition at 0.5 mg/kg (DPP-IV activity in serum [3]; dogs, 0.5 mg/kg oral, 12 hours, serum): 45% | inhibition at 1 mg/kg (DPP-IV activity in serum [2]; 1 mg/kg oral gavage, male CD rats, serum, 6 hrs, vs vehicle): 68 ± 4%

SMILES: N#C[C@@H]1CCCN1C(=O)[C@@H](N)C(c1ccc(F)cc1)c1ccc(F)cc1 [Comparison Example 6]
% DPP-IV Inhibition @ 6 Hrs. In Rats (DPP-IV activity in serum [2]; Table 3, rats, 6 Hrs.): 15 ± 1%

SMILES: COc1ccc(CS(=O)(=O)C(C)(C)[C@H](N)C(=O)N2C[C@@H](F)C[C@H]2C#N)cc1 [Example 9, (2S,4S)-1-{(2R)-2-Amino-3-[(4-methoxybenzyl)sulfonyl]-3-methylbutanoyl}-4-fluoropyrrolidine-2-carbonitrile hydrochloride]
t1/2 at 37° C. ([1]; 37° C.): 1733 h

SMILES: N#C[C@@H]1C[C@H](F)CN1C(=O)[C@@H](N)CCC(=O)O [Comparison Example 2]
inhibition at 1 mg/kg (DPP-IV activity in serum [2]; po): 32 ± 3% | duration of action (DPP-IV activity in serum [2]): poor level of duration | IC50 (human DPP-IV; [4]): 3 nM | IC50 (human DPP-IV; [5]): < 5.6 nM
